Test results taken from patent US20230045199A1, “COMPOSITIONS AND METHODS FOR HEMOGLOBIN PRODUCTION” (THE CHILDREN'S HOSPITAL OF PHILADELPHIA, priority 2019, published 2023).
Where two headings read alike, the source gives them in different places.

Tested on: PP6C
Experiment: Western blot of PP6C and gamma-globin in primary human cells after RNP electroporation of SpCas9 with guide RNA
Format: cell-based
Source text: FIGS. 2A-2D provide data regarding validation of PP6C as a regulator of HbF in human primary cells utilizing RNP-based electroporation of SpCas9 with guide RNA targeting PP6C. FIG. 2A depicts protein levels by Western blot of PP6C and gamma-globin with 6 independent guide RNA targeting PP6C or a non-targeting guide RNA. […] These specific guide RNAs were utilized for further primary human cell testing. FIG. 2B provides a graph of gamma globin mRNA levels in four independent biological replicates of human primary cells treated with PP6C sgRNA #1 or #3; a guide RNA targeting the BCL11A +58 enhancer (positive control), or a non-targeting guide RNA (negative control). FIG. 2C provides representative flow cytometric plots of HbF staining (top) and compiled F-cell flow cytometric staining in four independent biological replicates (bottom) in cells treated with PP6C sgRNA, BCL11A +58 sgRNA, or non-targeting sgRNA. […] FIG. 2D are representative cation-exchange high performance liquid chromatography (HPLC) tracings (top) and complied HPLC HbF+ quantitation in two independent biological replicates (bottom) in cells treated with PP6C sgRNA, BCL11A +58 sgRNA, or non-targeting sgRNA. HbF elutes as a distinct peak (grey box), followed by adult hemoglobin (HbA). Percentages are quantified as HbF percentage of total globins (HbF+HbA).
Cells were transduced with one of the six guide RNAs targeting PP6C, a guide RNA targeting BCL11A exon 2 (positive control; BCL11A is a repressor of HbF expression), or non-targeting guide RNA or untreated control (negative controls).

| Substance | PP6C protein level | gamma-globin protein levels | gamma-globin protein levels (listed as PP6C guide RNA #1) | gamma-globin protein levels (listed as PP6C guide RNA #3) |
| --- | --- | --- | --- | --- |
| PP6C sgRNA1: CRISPR sgRNA targeting PP6C, sequence GCACATCAACTAGTGCACGA (SEQ ID NO: 5) (listed as DNA, chemistry not given here) | significantly depleted | significantly increased | significant induction | – |
| PP6C sgRNA3: CRISPR sgRNA targeting PP6C, sequence GGAACTGCCCGGAATAACTT (SEQ ID NO: 7) (listed as DNA, chemistry not given here) | significantly depleted | significantly increased | – | significant induction |
| PP6C sgRNA4: CRISPR sgRNA targeting PP6C, sequence TCCTCGGGGACTGATAGCCC (SEQ ID NO: 8) (listed as DNA, chemistry not given here) | significantly depleted | significant induction | – | – |
